Data set [1] concerns HCoV-OC43. Nature of the data set: Resazurin-based CPE inhibition assay in HCoV-OC43-infected MRC-5 cells. The conditions noted are these: for antiviral activity against HCoV-OC43 infection in MRC-5 cells (in words): tested in both assays (CPE inhibition and HCS). The format is cell-based, Human betacoronavirus OC43.
Data set [2] concerns HCoV-OC43. Briefly: High-content screening assay, anti-OC43 immunostaining of infected MRC-5 cells. The format is cell-based, Human betacoronavirus OC43.
Data set [3] can be described thus: Resazurin cytotoxicity assay in non-infected MRC-5 cells. To be noted: human.
The subject of data set [4] is HCoV-OC43. Briefly: RT-qPCR of extracellular HCoV-OC43 RNA in culture supernatants. Type of data set: cell-based, Human betacoronavirus OC43. To be noted: 72 h incubation. As to the method:
Viral RNA from supernatants was purified using the Macherey-Nagel Nucleospin RNA Kit. RT-qPCR was performed in a single step using the One-Step TB Green PrimeScript RT-PCR Kit II (Takara Bio). The HCoV-OC43 nucleocapsid gene was amplified with the following primers: the forward primer 5′ […]-3′ and the reverse primer 5′ […]-3′ ([27]). A standard curve was generated with purified HCoV-RNA (Vircell).

Data set [5] has as its system MRC-5 cells. Nature of the data set: Resazurin cytotoxicity assay in non-infected MRC-5 cells. The conditions noted are these: MRC-5 cells.
In data set [6] the test system is MRC-5 cells.
A short description of data set [7]: in vitro. The conditions noted are these: human.
In data set [8] the test system is MERS. The conditions noted are these: marmosets infected with MERS ref 35; cited from earlier work.
For data set [9], the system named is HCoV-OC43. More on the design: method as in PMID 30918074. The conditions noted are these: mouse model ref 29; cited from earlier work.
Where [10] appears, read: Betacoronavirus 1, OC43, MRC5, read-out: EC50 (HCS assay).
The mark [11] stands for this setting: CC50, non-infected MRC-5 cells, 96 h incubation, resazurin.
The mark [12] stands for this setting: Betacoronavirus 1, MRC5, MRC-5 infected with HCoV-OC43 at 0.1 MOI, 96 h with drug, 5 days post-infection, resazurin readout, read-out: EC50 (CPE inhibition assay).
Where [13] appears, read: Betacoronavirus 1, OC43, MRC5, infected MRC-5, 72 h incubation with drug, 4 days post-infection, read-out: EC50 (HCS assay).

Read-outs that look alike come from different tables or passages of the source. Non-standard residues stand in square brackets, D forms with d. Residues, ends and D or L forms follow the SMILES beside them. dLac(3-vinyl) = C=CC[C@@H](O)C(=O)O; dHica = CC(C)C[C@@H](O)C(=O)O; NMeV = CN[C@H](C(=O)O)C(C)C; NMeA = CN[C@@H](C)C(=O)O; βAla = NCCC(=O)O

Turning to `CCN(CC)CCCC(C)Nc1ccnc2cc(Cl)ccc12` (stereo not drawn) [Chloroquine, chloroquine], the half-maximal effective concentration (EC50) in data set [1] (Betacoronavirus 1, OC43, MRC5, read-out: EC50 (CPE inhibition assay)) was determined as 6.22 µM; in data set [2] (setting [10]) it was 1.23 µM.
For `C=CC[C@H]1OC(=O)CCNC(=O)[C@H](C)N(C)C(=O)[C@H](C(C)C)N(C)C(=O)[C@H]([C@@H](C)CC)NC(=O)[C@@H]2CCCN2C1=O` [Destruxin A, destruxin A] (cyclo([dLac(3-vinyl)]PI[NMeV][NMeA][βAla])), the results for the “antiviral activity against HCoV-OC43 infection in MRC-5 cells (in words)” value (shortened to “antiviral activity … (in words)”) in [1] and in data set [1] (listed as destruxin A) were “did not have an effect” and “non-active”, respectively. Besides, in data set [3] (setting [11]), the CC50 at 96 h was around 10 µM.
In the case of `CC[C@H](C)[C@@H]1NC(=O)[C@@H]2CCCN2C(=O)[C@@H](CC(C)C)OC(=O)CCNC(=O)[C@H](C)N(C)C(=O)[C@H](C(C)C)N(C)C1=O` [Destruxin B, destruxin B] (cyclo([dHica]PI[NMeV][NMeA][βAla])), the “antiviral activity … (in words)” value in [1] is on record as “did not have an effect”; in data set [1] (listed as destruxin B), “non-active”. The CC50 at 96 h in data set [3] (setting [11]) is around 10 µM.
In the case of `O=C1OCC(Cc2ccccc2)=C1c1ccccc1` [Gymnoascolide A, gymnoascolide A], in data set [4] (40 µM), the “HCoV-OC43 RNA level in supernatant” value is on record as “under 20%”. Moreover, in data set [4] (80 µM), the “HCoV-OC43 RNA level (viral load) in supernatant” value was “below 5%”. Further, the “antiviral activity … (in words)” value in data set [1] was “showed activity”. Further, the EC50 in data set [2] (infected MRC-5, 72 h incubation with drug, 4 days post-infection, read-out: EC50 (HCS assay)) was 20.6 µM. The “toxicity against MRC-5 host cells (in words)” value in data set [5] is “no evident toxicity”.
For `CCCCC/C=C\C/C=C\CCCCCCCC(=O)O` [Linoleic acid, linoleic acid], the “HCoV-OC43 RNA load in supernatant” value in data set [4] (15 µM) is “below 50%”. In addition, the EC50 in data set [1] (setting [12]) amounted to 25.6 µM; in data set [2] (setting [13]), 18.3 µM. The “antiviral activity … (in words)” value in data set [1] is reported as “showed activity”. Also, the “toxicity against MRC-5 host cells (in words)” value in data set [6] is “no evident toxicity”. In data set [7], this compound showed a CC50 at 96 h above 40 µM.
For `COc1c(C)c2c(c(O)c1C/C=C(\C)CCC(=O)OCCN1CCOCC1)C(=O)OC2` [Mycophenolate mofetil, mycophenolate mofetil], the “side effects in vivo” value in [8] was “severe side effects”. Further, in data set [9], the “antiviral activity against HCoV-OC43 in a mouse model” value was “no antiviral activity”. Further, the figures for the EC50 in [1] (setting [12]) and in data set [2] (setting [13]) were 20.7 µM and 1.91 µM, respectively. Besides, in data set [1], the “antiviral activity … (in words)” value is reported as “showed activity”. This compound showed a CC50 in [7] above 200 µM.
Regarding `NC(=O)c1ncn([C@@H]2O[C@H](CO)[C@@H](O)[C@H]2O)n1` [Ribavirin, ribavirin], in data set [1], the selectivity index is given as around 8 and the “antiviral activity … (in words)” value is reported as “showed activity”. Further, in data set [1] (setting [12]), the EC50 stood at 118 µM. For the same compound, the EC50 in data set [2] (setting [10]) was determined as 92.1 µM. Moreover, in [3] (non-infected MRC-5 cells), the CC50 at 96 h was above 800 µM.

Values taken from PMC10783114, “Establishment of a screening platform based on human coronavirus OC43 for the identification of microbial natural products with antiviral activity” (Microbiology Spectrum, 2023).
